Results: patent US20160346255A1, “METHODS, AGENTS AND COMPOSITIONS FOR TREATMENT OF INFLAMMATORY CONDITIONS” (Betanien Hospital, priority 2014, published 2016)
Non-standard residues stand in square brackets, D forms with d. Residues, ends and D or L forms follow the SMILES beside them. *: point of attachment. dPhe(4-NHCONH2) = NC(=O)Nc1ccc(C[C@@H](N)C(=O)O)cc1; Dihydroorotyl(S) = O=C1C[C@@H](C(=O)*)NC(=O)N1; dPhe(4-Cl) = N[C@H](Cc1ccc(Cl)cc1)C(=O)O; Phe(4-NH2) = Nc1ccc(C[C@H](N)C(=O)O)cc1; d2Nal = N[C@H](Cc1ccc2ccccc2c1)C(=O)O; Lys(iPr) = CC(C)NCCCC[C@H](N)C(=O)O; d3Pal = N[C@H](Cc1cccnc1)C(=O)O

How the values were obtained:
Type in all cases: in vivo, human
[1] = tested on: Patient with Rheumatoid Arthritis; test: RA patient treated with degarelix and methotrexate
Method: • person with seropositive rheumatoid arthritis with disease duration of 16 years • Fulfilled ACR 2010 classification criteria for rheumatoid arthritis
• Previously failed 3 biologics (etanercept, Actemra, and rituximab). Last tried rituximab November 2013, but increasing disease activity and blood tests (CRP and ESR) during the months thereafter until start of degarelix 16.06.14. Concomitantly used stable methotrexate 10 mg weekly since 1999. • Started degarelix 240 mg induction dose 16.06.14, with 80 mg every 2 weeks thereafter. • Disease activity reduced and they achieved an ACR60 response by 29.09.14 under the introduction of degarelix and stable concomitant methotrexate and prednisolone. • 03.10.14 the patient's pulmonary physician stopped methotrexate treatment due to pleural thickening, and CT imaging supporting lung fibrosis which was suspected to be due to methotrexate. The patient had dyspnea which resolved once methotrexate was stopped. • By 21.11.14, the patients disease activity score had increased from 5.1 (29.9.14) to 5.7 (21.11.14), due to the discontinuation of methotrexate.

[2] = tested on: patients 1 and 2 (rheumatoid arthritis); test: Hip bone mineral density in patients taking a GnRH antagonist
Description: However, our data indicates the opposite.

[3] = tested on: patients with risk factors for cardiovascular disease; test: Cardiovascular disease risk factors in patients taking degarelix; details: for Blood pressure: baseline 151/90; for Fasting glucose (4.0-6.0): 8.9 in April 2014; for HDL (1.0-2.7 mmol/L): Patient 7, baseline 0.68
Description: In our patient group who were offered degarelix, some patients had risk factors for cardiovascular disease, metabolic syndrome, lipidemia or hypoalphalipoproteinemia (low HDL). None of these patients had recently started medications prior to the GnRH antagonist that could explain the changes in blood pressure, HbA1c, fasting glucose or lipids. See Example 1 for patient information.
Patient 1 with metabolic syndrome fulfilling 3 of 5 metabolic risk factors (large waistline >35 inches, high blood pressure and high fasting glucose). […] High HbA1c, contributes to CVD (normal reference range 4.3-6.1%) At baseline 6.4%, high. By 2 weeks HbA1c had normalized to 6.1%. This continues to be normal, and at 8 months is 5.7%. Their fasting glucose was 6.6 mmol/L in September 2014, by October 2014 this was reduced to 6.3 mmol/L. • 2. High blood pressure, contributes to CVD at baseline 151/90 (measured at several times prior to baseline with repeatedly high blood pressure). Blood pressure by 6 months 120/71, and this continues to be normal. At their last check up at 8 months, their blood pressure was 118/78. • 3. No other abnormalities at baseline for assessment
Patient 4 • High HbA1c, contributes to CVD (normal reference range 4.3-6.1%). At baseline the HbA1c was 6.9%, high. By 1 month the HbA1c had reduced to 6.6, by 2 months 6.4, and by 4 months 6.2, and by 12 months it was normalized to 5.9. Their hospital records from a nearby hospital stated that their fasting glucose was high at 8.5 mmol/L (reference range 4.0-6.0) in December 2013, and by April 2014 this was higher at 8.9. They asked the patient's family doctor to initiate treatment due to the development of diabetes type II. Their fasting glucose had reduced to 6.6 mmol/L by 3 months after starting degarelix, and by 4 months has now normalised to 6.0 mmol/L. No other abnormalities baseline for assessment
Patient 7 • 1. Low HDL, contributes to CVD (normal reference range 1.0-2.7 mmol/L). Mora et al. investigated the link between cholesterol and cardiovascular events in women and found baseline HDL level was consistently and inversely associated with incident coronary and CVD events. A low HDL cholesterol level is thought to accelerate the development of atherosclerosis because of impaired reverse cholesterol transport and possibly because of the absence of other protective effects of HDL, such as decreased oxidation of other lipoproteins. • They had low HDL at baseline 0.68 mmol/L in September 2014. They received their loading dose of degarelix 240 mg s.c. in September 2014. By 1 week, their HDL level had increased to 0.73, and by 2 weeks it continued to increase towards normal at 0.75. By 3 weeks it had normalized to 1.13 mmol/L and at 4 weeks is normal at 1.19 mmol/L. • 2. No other abnormalities at baseline for assessment

[4] = tested on: Patient with Systemic Sclerosis; test: Systemic sclerosis patient treated with degarelix; details: for HAQ DI: baseline 1.88; for Digital tip ulcers/pitting scars: baseline 5; for Modified Rodnan Skin Score: baseline 42; for VAS Fatigue / VAS Fingertip pain/pitting scars/ulcers / VAS Gastrointestinal Symptoms / VAS Global / VAS Lung/dyspnea / VAS Pain / VAS Raynauds/vascular: baseline 100; for Sleep: baseline 2 hrs/night
Description: • person, diagnosed with systemic sclerosis • Fulfilled the 2013 EULAR/ACR classification criteria for systemic sclerosis (1). • Diagnosis based upon Raynauds phenomenon, positive ANA, high titre anti-Scl 70 antibodies, marked skin changes typical of scleroderma, and esophageal dysmotility. • Previously tried cyclophosphamide and mycophenolate mofetil. • Progressive disease and worsening scleroderma skin features, despite therapy. • Rapid progressive cardiac disease, verified by biopsy. • Experimental treatment • 5 Dec. 2014 received first dose of degarelix, 240 mg s.c. • 9 Jan. 2015 received second dose of degarelix, 80 mg s.c.
• Digital ulcers and pitting scars are a characteristic feature of systemic sclerosis, contributing to disability and pain. They are important factors in patients' evaluations of quality of life (2). Their precise objective evaluation can be included in randomized controlled trials (3). Their pathogenesis is unclear. Histologically, there is a plug-like hyperkeratosis with parakeratosis, homogenized collagen fibers and perivascular mononuclear cell infiltration (4). […] Efficacy variables in a systemic sclerosis patient treated with a GnRH antagonist at baseline, 5 weeks and 6 weeks: […]

SMILES: CC(=O)N[C@H](Cc1ccc2ccccc2c1)C(=O)N[C@H](Cc1ccc(Cl)cc1)C(=O)N[C@H](Cc1cccnc1)C(=O)N[C@@H](CO)C(=O)N[C@@H](Cc1ccc(NC(=O)[C@@H]2CC(=O)NC(=O)N2)cc1)C(=O)N[C@H](Cc1ccc(NC(N)=O)cc1)C(=O)N[C@@H](CC(C)C)C(=O)N[C@@H](CCCCNC(C)C)C(=O)N1CCC[C@H]1C(=O)N[C@H](C)C(N)=O [degarelix] (Ac-[d2Nal][dPhe(4-Cl)][d3Pal]S[Phe(4-NH2)](Dihydroorotyl(S))[dPhe(4-NHCONH2)]L[Lys(iPr)]P[dA]-NH2)
- Disease activity score ([1]; 21.11.14, degarelix after methotrexate stopped 03.10.14): 5.7
- Disease activity score ([1]; 29.9.14, degarelix with methotrexate 10 mg weekly): 5.1
- ACR response achieved ([1]; by 29.09.14 (start 16.06.14), with stable concomitant methotrexate and prednisolone): ACR60
- Bone mineral density in hips ([2]; Patient 1, first time in 3.5 years, no osteoporosis therapy (FIG. 9)): improvement
- Bone mineral density in hips ([2]; Patient 2, first time in 4.5 years (FIG. 10)): improvement
- Fasting glucose ([3]; Patient 1, October 2014, 6.6 mmol/L in September 2014): 6.3 mmol/L
- Criteria for metabolic syndrome ([3]; Patient 1, after degarelix, 3 of 5 risk factors before): no longer fulfills the criteria
- HbA1c (4.3-6.1%) ([3]; Patient 1, at 8 months, baseline 6.4%): 5.7%
- Blood pressure ([3]; Patient 1, at 8 months): 118/78
- HbA1c (4.3-6.1%) ([3]; Patient 1, by 2 weeks, baseline 6.4%): 6.1%
- Blood pressure ([3]; Patient 1, by 6 months): 120/71
- HbA1c (4.3-6.1%) ([3]; Patient 4, by 1 month, baseline 6.9%): 6.6%
- HbA1c (4.3-6.1%) ([3]; Patient 4, by 2 months, baseline 6.9%): 6.4%
- Fasting glucose (4.0-6.0) ([3]; Patient 4, by 3 months): 6.6 mmol/L
- Fasting glucose (4.0-6.0) ([3]; Patient 4, by 4 months, normalised): 6.0 mmol/L
- HbA1c (4.3-6.1%) ([3]; Patient 4, by 4 months, baseline 6.9%): 6.2%
- HbA1c (4.3-6.1%) ([3]; Patient 4, by 12 months, normalized, baseline 6.9%): 5.9%
- HDL (1.0-2.7 mmol/L) ([3]; at 4 weeks): 1.19 mmol/L
- HDL (1.0-2.7 mmol/L) ([3]; by 1 week): 0.73 mmol/L
- HDL (1.0-2.7 mmol/L) ([3]; by 2 weeks): 0.75 mmol/L
- HDL (1.0-2.7 mmol/L) ([3]; by 3 weeks, normalized): 1.13 mmol/L
- HAQ DI ([4]; 5 weeks): 1.38
- Digital tip ulcers/pitting scars ([4]; 5 weeks): 2
- Modified Rodnan Skin Score ([4]; 5 weeks): 40
- VAS Fatigue ([4]; 5 weeks): 75
- VAS Fingertip pain/pitting scars/ulcers ([4]; 5 weeks): 40
- VAS Gastrointestinal Symptoms ([4]; 5 weeks): 80
- VAS Global ([4]; 5 weeks): 40
- VAS Lung/dyspnea ([4]; 5 weeks): 80
- VAS Pain ([4]; 5 weeks): 10
- VAS Raynauds/vascular ([4]; 5 weeks): 40
- Sleep ([4]; 5 weeks): 5 hrs/night
- HAQ DI ([4]; 6 weeks): 1.38
- Digital tip ulcers/pitting scars ([4]; 6 weeks): 2
- Modified Rodnan Skin Score ([4]; 6 weeks): 40
- VAS Fatigue ([4]; 6 weeks): 60
- VAS Fingertip pain/pitting scars/ulcers ([4]; 6 weeks): 30
- VAS Gastrointestinal Symptoms ([4]; 6 weeks): 60
- VAS Global ([4]; 6 weeks): 40
- VAS Lung/dyspnea ([4]; 6 weeks): 50
- VAS Pain ([4]; 6 weeks): 10
- VAS Raynauds/vascular ([4]; 6 weeks): 30
- Sleep ([4]; 6 weeks): 5.5 hrs/night
